Tests used:
Type in all cases: in vivo
[1] = system: mustard beetle larvae (Phaedon cochleariae); assay: Phaedon cochleariae - spray test; conditions: Chinese cabbage leaf disks
From the text: (§1) The expected activity for a given combination of two active compounds can be calculated according to S. R. Colby, Weeds 15 (1967), 20-22 as follows: • If • X is the kill rate, expressed in % of the untreated control, when active compound A is applied at an application rate of m g/ha or at a concentration of m ppm, • Y is the kill rate, expressed in % of the untreated control, when active compound B is applied at an application rate of n g/ha or at a concentration of n ppm and • E is the kill rate, expressed in % of the untreated control, when active compounds A and B is applied at application rates of m and n g/ha or at a concentration of m and n ppm, • then
Phaedon cochleariae—Spray Test
(§2) To produce a suitable preparation of active compound, 1 part by weight of active compound is mixed with the stated amount of solvents and is diluted with water, containing an emulsifier concentration of 1000 ppm, to the desired concentration. To produce a suitable preparation of a spore suspension the spores are diluted with emulsifier containing water to the desired concentration. Further test concentrations are prepared by dilution with emulsifier containing water.
Chinese cabbage (Brassica pekinensis) leaf disks are sprayed with a preparation of the active ingredient of the desired concentration. Once dry, the leaf disks are infested with mustard beetle larvae (Phaedon cochleariae).
After the specified period of time, mortality in % is determined. 100% means all beetle larvae have been killed and 0% means none of the beetle larvae have been killed. The mortality values determined thus are recalculated using the Colby-formula (see sheet 1).

[2] = system: larvae of the cotton boll worm (Heliothis armigera); assay: Heliothis armigera - spray test; conditions: cotton plants
From the text: as §1
Heliothis armigera—Spray Test
(§3) Solvent: 7 parts by weight of dimethylformamide Emulsifier: alkylaryl polyglycol ether
To produce a suitable preparation of active compound, 1 part by weight of active compound is mixed with the stated amount of solvent and is diluted with water, containing an emulsifier concentration of 1000 ppm, to the desired concentration. Further test concentrations are prepared by dilution with emulsifier containing water. Ammonium salt and/or penetration enhancer in a dosage of 1000 ppm are added to the desired concentration if necessary.
Cotton plants (Gossypium hirsutum) are treated by being sprayed with the preparation of the active compound of the desired concentration and are infested with larvae of the cotton boll worm (Heliothis armigera).
After the specified period of time, the mortality in % is determined. 100% means all caterpillars have been killed; 0% means none of the caterpillars have been killed. The mortality values determined thus are recalculated using the Colby-formula (see sheet 1).

[3] = system: caterpillars of the fall army worm (Spodoptera frugiperda); assay: Spodoptera frugiperda - spray test; conditions: 0.1 ppm, cotton leaves
From the text: as §1
Spodoptera frugiperda—Spray Test
as §3
To produce a suitable preparation of active compound, 1 part by weight of active compound is mixed with the stated amount of solvent and is diluted with water, containing an emulsifier concentration of 1000 ppm, to the desired concentration. Further test concentrations are prepared by dilution with emulsifier containing water. Ammonium salt and/or penetration enhancer in a dosage of 1000 ppm are added if necessary.
Cotton leaves (Gossypium hirsutum) are treated by being sprayed with the preparation of the active compound of the desired concentration and are infested with caterpillars of the fall army worm (Spodoptera frugiperda).
After the specified period of time mortality in % is determined. 100% means all the caterpillars have been killed and 0% means none of the caterpillars have been killed. The mortality values determined thus are recalculated using the Colby-formula (see sheet 1).

[4] = system: two spotted spidermite (Tetranychus urticae); assay: Tetranychus urticae - spray test OP-resistant; conditions: French bean leaf disks
From the text: as §1
Tetranvchus Urticae—Spray Test OP-Resistant
as §2
French bean (Phaseolus vulgaris) leaf disks which are heavily infested with all stages of the two spotted spidermite (Tetranychus urticae), are sprayed with a preparation of the active ingredient of the desired concentration.
After the specified period of time, mortality in % is determined. 100% means all spider mites have been killed and 0% means none of the spider mites have been killed. The mortality values determined thus are recalculated using the Colby-formula (see sheet 1).

SMILES: CNC(=O)c1cc(C#N)cc(C)c1NC(=O)c1cc(Cn2nnc(C(F)(F)F)n2)nn1-c1ncccc1Cl [(II-2), 1-(3-chloropyridin-2-yl)-N-[4-cyano-2-methyl-6-(methylcarbamoyl)phenyl]-3-{[5-(trifluoromethyl)-2H-tetrazol-2-yl]methyl}-1H-pyrazole-5-carboxamide]
- Efficacy in % after 6d ([1]; 0.0064 g ai/ha): 0%
- Efficacy in % after 6d ([1]; 0.032 g ai/ha): 33%

SMILES: CNC(=O)c1cc(Cl)cc(C)c1NC(=O)c1cc(Br)nn1-c1ncccc1Cl [Chlorantraniliprole]
- Efficacy in % after 6d ([1]; 0.16 g ai/ha): 0%

SMILES: Cc1cc(C(F)(C(F)(F)F)C(F)(F)F)ccc1NC(=O)c1cccc(Cl)c1C(=O)NC(C)(C)C#N [Compound of formula (II-6)]
- Efficacy in % after 2d ([2]; 0.1 ppm): 20%
- Efficacy in % after 2d ([2]; 0.2 ppm): 50%
- Efficacy in % after 1d ([2]; 0.4 ppm, 1 d): 30%
- Efficacy in % after 2d ([2]; 0.4 ppm): 60%

SMILES: CNC(=O)c1cc(C#N)cc(C)c1NC(=O)c1cc(Br)nn1-c1ncccc1Cl [Cyantraniliprole]
- Efficacy in % after 6d ([2]; 0.15 ppm, 6 d): 50%

SMILES: Cc1cc(C(F)(C(F)(F)F)C(F)(F)F)ccc1NC(=O)c1cccc(I)c1C(=O)NC(C)(C)CS(C)(=O)=O [Flubendiamide]
- Efficacy in % after 1d ([3]; 1 d): 0%
- Efficacy in % after 2d ([3]; 2 d): 0%
- Efficacy in % after 3d ([3]; 3 d): 0%
- Efficacy in % after 2d ([4]; 0.8 g ai/ha): 0%
- Efficacy in % after 6d ([4]; 0.8 g ai/ha, 6 d): 0%
- Efficacy in % after 2d ([4]; 4 g ai/ha): 0%
